Test results taken from patent publication US9315505B2, “Heterocyclic compounds and uses thereof” (INTELLIKINE LLC, priority 2009, dated 2016).

Assays:
Assay type in all cases: biochemical
PI3K α = molecular target: T1, PI3K α (Homo sapiens, UniProt P42336); assay: In vitro IC50, PI3K α (p110α/p85α inhibition assay); details: in vitro kinase assay; read-out: IC50(nM) PI3K α
T1 construct: purchased Upstate
Protocol: (§1) IC50 values are measured using either a standard TLC assay for lipid kinase activity (described below) or a high-throughput membrane capture assay. Kinase reactions are performed by preparing a reaction mixture containing kinase, inhibitor (2% DMSO final concentration), buffer (25 mM HEPES, pH 7.4, 10 mM MgCl2), and freshly sonicated phosphatidylinositol (100 μg/ml). Reactions are initiated by the addition of ATP containing 10 μCi of γ-32P-ATP to a final concentration 10 or 100 μM and allowed to proceed for 5 minutes at room temperature. For TLC analysis, reactions are then terminated by the addition of 105 μl 1N HCl followed by 160 μl CHCl3:MeOH (1:1). The biphasic mixture is vortexed, briefly centrifuged, and the organic phase is transferred to a new tube using a gel loading pipette tip precoated with CHCl3. This extract is spotted on TLC plates and developed for 3-4 hours in a 65:35 solution of n-propanol:1M acetic acid. The TLC plates are then dried, exposed to a phosphorimager screen (Storm, Amersham), and quantitated.
(§2) Other commercial kits or systems for assaying PI3-K activities are available. The commercially available kits or systems can be used to screen for inhibitors and/or agonists of PI3-Ks including but not limited to PI 3-Kinase α, β, δ, and γ. An exemplary system is PI 3-Kinase (human) HTRF™ Assay from Upstate. […] Briefly, the assay is a time resolved FRET assay that indirectly measures PIP3 product formed by the activity of a PI3-K. The kinase reaction is performed in a microtitre plate (e.g., a 384 well microtitre plate). The total reaction volume is approximately 20 ul per well. In the first step, each well receives 2 ul of test compound in 20% dimethylsulphoxide resulting in a 2% DMSO final concentration. Next, approximately 14.5 ul of a kinase/PIP2 mixture (diluted in 1× reaction buffer) is added per well for a final concentration of 0.25-0.3 ug/ml kinase and 10 uM PIP2. The plate is sealed and incubated for 15 minutes at room temperature. To start the reaction, 3.5 ul of ATP (diluted in 1× reaction buffer) is added per well for a final concentration of 10 uM ATP. The plate is sealed and incubated for 1 hour at room temperature. The reaction is stopped by adding 5 ul of Stop Solution per well and then 5 ul of Detection Mix is added per well. The plate is sealed, incubated for 1 hour at room temperature, and then read on an appropriate plate reader. Data is analyzed and IC50s are generated using GraphPad Prism 5.

PI3K γ = molecular target: T2, PI3K γ (Homo sapiens, UniProt P48736); assay: In vitro IC50, PI3K γ (p110γ inhibition assay); details: in vitro kinase assay
T2 construct: purchased Sigma
T2 sequence (P48736 whole entry): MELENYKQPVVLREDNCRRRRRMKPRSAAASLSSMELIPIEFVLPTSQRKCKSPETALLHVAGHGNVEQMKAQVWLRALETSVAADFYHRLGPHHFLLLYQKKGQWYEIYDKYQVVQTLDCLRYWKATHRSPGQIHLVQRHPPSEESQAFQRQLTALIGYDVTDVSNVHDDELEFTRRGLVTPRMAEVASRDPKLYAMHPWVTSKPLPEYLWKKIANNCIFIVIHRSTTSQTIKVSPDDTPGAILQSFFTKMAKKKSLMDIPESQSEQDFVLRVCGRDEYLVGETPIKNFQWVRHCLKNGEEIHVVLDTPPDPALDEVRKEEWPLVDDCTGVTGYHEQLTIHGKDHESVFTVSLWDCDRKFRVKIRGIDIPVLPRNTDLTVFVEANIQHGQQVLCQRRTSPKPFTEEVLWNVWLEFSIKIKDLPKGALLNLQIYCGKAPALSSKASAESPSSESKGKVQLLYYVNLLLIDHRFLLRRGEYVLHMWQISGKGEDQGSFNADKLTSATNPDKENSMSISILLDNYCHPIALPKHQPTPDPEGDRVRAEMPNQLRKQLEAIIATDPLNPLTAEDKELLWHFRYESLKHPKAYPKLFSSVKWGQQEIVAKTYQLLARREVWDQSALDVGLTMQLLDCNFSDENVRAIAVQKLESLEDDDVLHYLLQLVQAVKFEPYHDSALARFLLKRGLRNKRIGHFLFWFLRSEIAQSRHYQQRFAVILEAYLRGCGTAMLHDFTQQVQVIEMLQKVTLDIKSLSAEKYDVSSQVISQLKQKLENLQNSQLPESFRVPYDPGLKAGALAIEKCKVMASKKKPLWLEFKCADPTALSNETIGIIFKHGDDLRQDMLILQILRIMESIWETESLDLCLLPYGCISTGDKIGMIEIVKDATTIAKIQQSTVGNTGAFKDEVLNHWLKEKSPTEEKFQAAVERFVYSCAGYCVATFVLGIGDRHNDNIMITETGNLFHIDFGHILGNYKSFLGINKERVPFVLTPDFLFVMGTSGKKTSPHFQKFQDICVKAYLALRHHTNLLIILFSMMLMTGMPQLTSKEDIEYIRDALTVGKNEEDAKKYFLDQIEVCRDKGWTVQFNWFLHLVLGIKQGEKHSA
Protocol: as §1, with “Class I PI3-Ks can be either purchased (p110α/p85α, p110β/p85α, p110δ/p85α from Upstate, and p110γ from Sigma) or expressed as previously described (Knight et al., 2004). IC50” for “IC50”, “quantitated. For each compound, kinase activity is measured at 10-12 inhibitor concentrations representing two-fold dilutions from the highest concentration tested (typically, 200 μM).” for “quantitated.”
as §2

PI3K δ = molecular target: T3, PI3K δ (Homo sapiens, UniProt O00329); assay: In vitro IC50, PI3K δ (p110δ/p85α inhibition assay); details: in vitro kinase assay; read-out: IC50(nM) PI3K δ
T3 construct: purchased Upstate
T3 sequence (O00329 whole entry): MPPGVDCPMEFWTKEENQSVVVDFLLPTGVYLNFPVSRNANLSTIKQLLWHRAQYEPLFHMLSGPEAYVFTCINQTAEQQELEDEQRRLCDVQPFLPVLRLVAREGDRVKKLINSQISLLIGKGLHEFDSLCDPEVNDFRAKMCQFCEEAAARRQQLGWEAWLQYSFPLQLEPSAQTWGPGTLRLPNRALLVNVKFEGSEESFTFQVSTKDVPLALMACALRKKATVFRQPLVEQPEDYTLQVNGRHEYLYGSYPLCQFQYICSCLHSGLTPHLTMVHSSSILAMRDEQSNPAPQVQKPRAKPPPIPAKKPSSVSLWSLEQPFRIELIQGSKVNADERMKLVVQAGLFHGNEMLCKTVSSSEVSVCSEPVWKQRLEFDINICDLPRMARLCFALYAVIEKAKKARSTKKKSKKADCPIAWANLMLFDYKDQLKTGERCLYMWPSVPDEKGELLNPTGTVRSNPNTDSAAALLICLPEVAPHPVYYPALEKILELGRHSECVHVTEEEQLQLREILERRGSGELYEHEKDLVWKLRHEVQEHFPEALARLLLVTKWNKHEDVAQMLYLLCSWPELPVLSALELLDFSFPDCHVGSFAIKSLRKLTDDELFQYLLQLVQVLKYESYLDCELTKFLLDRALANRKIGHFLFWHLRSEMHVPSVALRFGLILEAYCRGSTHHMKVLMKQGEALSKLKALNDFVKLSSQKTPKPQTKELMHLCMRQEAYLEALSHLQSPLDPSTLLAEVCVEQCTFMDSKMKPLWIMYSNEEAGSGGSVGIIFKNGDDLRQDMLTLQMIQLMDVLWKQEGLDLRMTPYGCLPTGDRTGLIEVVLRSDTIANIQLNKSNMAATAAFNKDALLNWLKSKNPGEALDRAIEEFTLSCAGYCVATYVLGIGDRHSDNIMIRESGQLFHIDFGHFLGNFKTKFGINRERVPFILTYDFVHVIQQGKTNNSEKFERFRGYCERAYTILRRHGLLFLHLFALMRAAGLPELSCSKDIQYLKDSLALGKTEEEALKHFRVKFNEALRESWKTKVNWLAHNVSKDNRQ
T3 sequence (P27986 whole entry partner): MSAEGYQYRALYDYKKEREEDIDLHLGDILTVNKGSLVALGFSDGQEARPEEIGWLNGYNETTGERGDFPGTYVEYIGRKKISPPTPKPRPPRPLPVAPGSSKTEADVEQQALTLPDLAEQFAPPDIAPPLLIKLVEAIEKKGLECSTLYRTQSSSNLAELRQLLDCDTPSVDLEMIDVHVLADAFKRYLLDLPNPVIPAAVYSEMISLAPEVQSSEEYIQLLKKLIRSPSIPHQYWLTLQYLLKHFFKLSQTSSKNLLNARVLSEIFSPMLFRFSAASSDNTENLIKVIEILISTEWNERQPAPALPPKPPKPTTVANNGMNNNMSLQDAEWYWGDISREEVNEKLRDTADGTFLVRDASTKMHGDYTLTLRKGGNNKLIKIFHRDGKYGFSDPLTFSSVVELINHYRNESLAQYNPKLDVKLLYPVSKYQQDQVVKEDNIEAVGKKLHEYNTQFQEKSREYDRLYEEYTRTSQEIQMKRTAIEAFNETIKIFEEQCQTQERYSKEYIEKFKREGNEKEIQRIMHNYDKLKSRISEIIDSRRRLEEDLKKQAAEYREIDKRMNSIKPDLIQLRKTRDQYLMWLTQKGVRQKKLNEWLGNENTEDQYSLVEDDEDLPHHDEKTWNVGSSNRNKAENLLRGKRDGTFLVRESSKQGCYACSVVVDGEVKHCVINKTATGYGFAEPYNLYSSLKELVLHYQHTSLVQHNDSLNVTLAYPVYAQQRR
Protocol: as §1, §2

T1 sequence (P42336 whole entry): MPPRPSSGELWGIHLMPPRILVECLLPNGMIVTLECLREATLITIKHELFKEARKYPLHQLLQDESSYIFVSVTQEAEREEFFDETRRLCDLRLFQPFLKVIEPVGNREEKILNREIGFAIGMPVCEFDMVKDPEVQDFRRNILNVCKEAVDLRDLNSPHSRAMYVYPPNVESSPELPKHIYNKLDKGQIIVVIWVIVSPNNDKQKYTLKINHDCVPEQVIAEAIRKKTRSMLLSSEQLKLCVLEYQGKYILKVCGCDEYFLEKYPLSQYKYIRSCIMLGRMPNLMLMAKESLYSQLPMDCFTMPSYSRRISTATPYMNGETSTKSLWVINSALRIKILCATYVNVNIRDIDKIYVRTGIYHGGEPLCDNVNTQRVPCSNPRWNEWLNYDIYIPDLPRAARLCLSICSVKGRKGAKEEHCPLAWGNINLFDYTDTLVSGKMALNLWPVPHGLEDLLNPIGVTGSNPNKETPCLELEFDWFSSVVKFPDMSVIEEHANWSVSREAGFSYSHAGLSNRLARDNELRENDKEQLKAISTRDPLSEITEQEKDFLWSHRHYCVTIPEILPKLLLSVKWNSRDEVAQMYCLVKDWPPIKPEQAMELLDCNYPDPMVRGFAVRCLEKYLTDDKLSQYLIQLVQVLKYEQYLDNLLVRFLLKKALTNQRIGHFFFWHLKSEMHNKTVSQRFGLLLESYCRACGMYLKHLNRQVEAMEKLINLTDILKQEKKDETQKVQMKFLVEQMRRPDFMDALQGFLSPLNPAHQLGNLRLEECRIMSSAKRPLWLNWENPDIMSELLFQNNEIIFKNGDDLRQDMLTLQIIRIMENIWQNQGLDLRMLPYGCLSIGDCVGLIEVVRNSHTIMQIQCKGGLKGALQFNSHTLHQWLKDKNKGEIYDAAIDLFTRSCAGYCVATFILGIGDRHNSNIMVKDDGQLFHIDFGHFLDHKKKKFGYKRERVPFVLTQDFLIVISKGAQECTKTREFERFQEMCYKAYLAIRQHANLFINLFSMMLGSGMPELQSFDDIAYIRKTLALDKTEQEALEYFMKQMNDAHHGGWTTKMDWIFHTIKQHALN
T1 sequence (P27986 whole entry partner): as the sequence (P27986 whole entry partner) above

| IC50 (PI3K α) | IC50 (PI3K γ) | IC50 (PI3K δ) | Compound |
| --- | --- | --- | --- |
| > 10000 nM | > 10000 nM | < 100 nM | Cc1cccc2cc(CNc3ncnc4[nH]cnc34)nc(OC3CCN(C(C)C)CC3)c12 [Compound 10] |
| > 10000 nM | > 10000 nM | < 10000 nM | CCN(Cc1cc2cccc(C)c2c(OC2CCN(C(C)C)CC2)n1)c1ncnc2[nH]cnc12 [Compound 11] |
| > 10000 nM | > 10000 nM | < 1000 nM | Cc1cccc2cc(CN(C)c3ncnc4[nH]cnc34)nc(OC3CCN(C(C)C)CC3)c12 [Compound 12] |
| > 10000 nM | > 10000 nM | < 1000 nM | Cc1cccc2cc(C(C)Nc3ncnc4[nH]cnc34)nc(OC3CCNCC3)c12 (stereo not drawn) [Compound 14] |
| < 10000 nM | – | < 100 nM | Cc1cccc2cc(Cn3nc(-c4cn[nH]c4)c4c(N)ncnc43)nc(N3CCN(C)CC3)c12 [Compound 18] |
| – | > 10000 nM | < 100 nM | Cc1cccc2cc(C(C)Nc3ncnc4[nH]cnc34)nc(N3CCN(C)CC3)c12 (stereo not drawn) [Compound 19] |
| < 10000 nM | > 10000 nM | < 100 nM | Cc1cccc2cc(C(C)Nc3ncnc4[nH]cnc34)nc(OC3CCN(C(C)C)CC3)c12 (stereo not drawn) [Compound 21] |
| – | – | < 10000 nM | CC(Nc1ncnc2[nH]cnc12)c1cc2ccccc2c(OC2CCNCC2)n1 (stereo not drawn) [Compound 22] |
| > 10000 nM | > 10000 nM | < 1000 nM | CC(Nc1ncnc2[nH]cnc12)c1cc2ccccc2c(OC2CCN(C)CC2)n1 (stereo not drawn) [Compound 23] |
| – | – | < 1000 nM | Cc1cccc2cc(C(C)Nc3ncnc4[nH]cnc34)nc(Oc3ccccc3)c12 (stereo not drawn) [Compound 24] |
| < 10000 nM | < 1000 nM | < 100 nM | Cc1cccc2cc(Cn3nc(-c4cn[nH]c4)c4c(N)ncnc43)nc(N3CCCC3)c12 [Compound 27] |
| – | – | > 10000 nM | CC(=O)Nc1nc2ccc(-c3nn(Cc4cc5cccc(C)c5c(OC(C)C)n4)c4ncnc(N)c34)cc2s1 [Compound 28] |
| – | – | > 10000 nM | Cc1cccc2cc(Cn3nc(-c4ccc5oc(N)nc5c4)c4c(N)ncnc43)nc(OC(C)C)c12 [Compound 29] |
| – | – | < 10000 nM | Cc1cccc2cc(Cn3nc(-c4cn[nH]c4)c4c(N)ncnc43)nc(OC(C)C)c12 [Compound 30] |
| – | – | < 10000 nM | Cc1cccc2cc(C(C)Nc3ncnc4[nH]cnc34)nc(OC(C)C)c12 (stereo not drawn) [Compound 32] |
| – | – | < 10000 nM | Cc1cccc2cc(C(Nc3ncnc4[nH]cnc34)c3ccccc3)ncc12 (stereo not drawn) [Compound 33] |
| – | – | < 10000 nM | Cc1cccc2cc(Cn3nc(-c4ccc5oc(N)nc5c4)c4c(N)ncnc43)nc(Oc3ccccc3)c12 [Compound 34] |
| – | > 10000 nM | < 1000 nM | Cc1cccc2cc(C(C)Nc3ncnc4[nH]cnc34)nc(OC3CCOCC3)c12 (stereo not drawn) [Compound 40] |
| – | > 10000 nM | < 1000 nM | Cc1cccc2cc(C(C)Nc3ncnc4[nH]cnc34)nc(NC3CCN(C)CC3)c12 (stereo not drawn) [Compound 41] |
| – | > 10000 nM | < 10000 nM | Cc1cccc2cc(C(C)Nc3ncnc4[nH]cnc34)nc(NC3CCOCC3)c12 (stereo not drawn) [Compound 43] |
| > 10000 nM | < 1000 nM | < 100 nM | CC(=O)N1CCC(Oc2nc(C(C)Nc3ncnc4[nH]cnc34)cc3cccc(C)c23)CC1 (stereo not drawn) [Compound 47] |
| > 10000 nM | < 10000 nM | < 100 nM | Cc1cccc2cc(C(C)Nc3ncnc4[nH]cnc34)nc(OC3CCN(S(C)(=O)=O)CC3)c12 (stereo not drawn) [Compound 48] |

| IC50 (PI3K α) | IC50 (PI3K γ) | IC50 (PI3K δ) | Compound |
| --- | --- | --- | --- |
| > 10000 nM | < 10000 nM | < 1000 nM | CC(=O)N1CCC(Nc2nc(C(C)Nc3ncnc4[nH]cnc34)cc3cccc(C)c23)CC1 (stereo not drawn) [Compound 49] |
| < 10000 nM | > 10000 nM | < 100 nM | Cc1cccc2cc(C(C)Nc3ncnc4[nH]cnc34)nc(OCC3CCN(C(C)C)CC3)c12 (stereo not drawn) [Compound 51] |
| > 10000 nM | > 10000 nM | < 1000 nM | CC(=O)N1CCC(Oc2nc(C(C)Nc3ncnc4[nH]cnc34)cc3ccccc23)CC1 (stereo not drawn) [Compound 52] |
| > 10000 nM | > 10000 nM | < 1000 nM | CC(Nc1ncnc2[nH]cnc12)c1cc2ccccc2c(OC2CCN(S(C)(=O)=O)CC2)n1 (stereo not drawn) [Compound 53] |
| < 10000 nM | < 1000 nM | < 100 nM | C[C@H](Nc1ncnc2[nH]cnc12)c1cc2cccc(Cl)c2c(N2CCN(S(C)(=O)=O)CC2)n1 [Compound 64] |
| > 10000 nM | > 10000 nM | < 1000 nM | CC(=O)N1CCN(c2nc([C@H](C)Nc3ncnc4[nH]cnc34)cc3cccc(Cl)c23)CC1 [Compound 69] |
| > 10000 nM | < 10000 nM | < 100 nM | CC(=O)N1CCN(c2nc(Cn3nc(-c4cn[nH]c4)c4c(N)ncnc43)cc3cccc(Cl)c23)CC1 [Compound 70] |
| < 10000 nM | < 1000 nM | < 100 nM | C[C@H](Nc1ncnc2[nH]cnc12)c1cc2cccc(Cl)c2c(N(C)C)n1 [Compound 71] |
| < 10000 nM | < 1000 nM | < 100 nM | C[C@H](Nc1ncnc2[nH]cnc12)c1cc2cccc(Cl)c2c(OCCN2CCCC2)n1 [Compound 72] |
| < 10000 nM | < 10000 nM | < 100 nM | C[C@H](Nc1ncnc2[nH]cnc12)c1cc2cccc(Cl)c2c(OCC2CCN(C)CC2)n1 [Compound 73] |
| > 10000 nM | < 10000 nM | < 100 nM | C[C@H](Nc1ncnc2[nH]cnc12)c1cc2cccc(Cl)c2c(OCCN2CCN(S(C)(=O)=O)CC2)n1 [Compound 74] |
| > 10000 nM | > 10000 nM | < 100 nM | C[C@H](Nc1ncnc2[nH]cnc12)c1cc2cccc(Cl)c2c(OCC2CCN(S(C)(=O)=O)CC2)n1 [Compound 75] |
| > 10000 nM | < 10000 nM | < 1000 nM | C[C@H](Nc1ncnc2[nH]cnc12)c1cc2ccccc2c(-c2cccnc2)n1 [Compound 76] |
| > 10000 nM | > 10000 nM | < 1000 nM | C[C@H](Nc1ncnc2[nH]cnc12)c1cc2ccccc2c(N2CCN(S(C)(=O)=O)CC2)n1 [Compound 77] |
| > 10000 nM | < 10000 nM | < 100 nM | CC(Nc1ncnc2[nH]cnc12)c1cc2cccc(Cl)c2c(CCN2CCOCC2)n1 (stereo not drawn) [Compound 78] |
| > 10000 nM | < 10000 nM | < 100 nM | CC(Nc1ncnc2[nH]cnc12)c1cc2cccc(Cl)c2c(CCN2CCCC2)n1 (stereo not drawn) [Compound 79] |
| > 10000 nM | < 10000 nM | < 100 nM | CC(Nc1ncnc2[nH]cnc12)c1cc2cccc(Cl)c2c(CCN2CCN(S(C)(=O)=O)CC2)n1 (stereo not drawn) [Compound 80] |
| > 10000 nM | > 10000 nM | < 1000 nM | CC(=O)N1CCN(CCc2nc(C(C)Nc3ncnc4[nH]cnc34)cc3cccc(Cl)c23)CC1 (stereo not drawn) [Compound 81] |
| > 10000 nM | < 1000 nM | < 100 nM | C[C@H](Nc1ncnc2[nH]cnc12)c1cc2cccc(Cl)c2c(-c2cccnc2)n1 [Compound 82] |
| > 10000 nM | > 10000 nM | > 10000 nM | C[C@@H](Nc1ncnc2[nH]cnc12)c1cc2cccc(Cl)c2c(N2CCN(S(C)(=O)=O)CC2)n1 [Compound 83] |
| > 10000 nM | > 10000 nM | < 1000 nM | C[C@@H](Nc1ncnc2[nH]cnc12)c1cc2cccc(Cl)c2c(OC2CCN(S(C)(=O)=O)CC2)n1 [Compound 84] |
